The source of these data is US9611262B2, “Substituted 2-azabicycles and their use as orexin receptor modulators” (JANSSEN PHARMACEUTICA NV, priority 2014, dated 2017).

The structures appear in SMILES notation.

One assay addresses rat orexin 1 receptor (Rattus norvegicus, UniProt P56718). Kind of assay: Rat orexin 1 receptor radioligand binding (competitive). Particulars: HEK293 cells stably expressing rat orexin 1 receptor; 4 nM radioligand; averages of 2-20 runs; read-out: rOX1 Ki. The essentials:
(§1)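 Competition binding used HEK293 cells expressing rat OX1 or CHO cells expressing human OX1, with 4 nM final [3H]-labelled thiazolyl-oxadiazolyl-pyrrolidinyl methanone radioligand in PBS. Compounds were tested at 7 concentrations (0.1 nM–10 μM) for 60 min at room temperature, then filtered; 10 μM almorexant defined nonspecific binding. Ki was derived from the one-site IC50 and the radioligand Kd.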

The target of a further assay is human orexin 2 receptor (Homo sapiens (Human), UniProt O43614). The assay can be described thus: Human orexin 2 receptor radioligand binding ([3H]-EMPA competition). The following applies: HEK293 stably expressing human orexin 2 receptor; 2 nM [3H]-EMPA; averages of 2-20 runs; read-out: hOX2 Ki. The essentials:
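Membranes-free whole HEK293 cells stably expressing human OX2 receptor incubated with [3H]-EMPA and compound (7 concentrations, 0.1 nM–10 μM, ≤0.1% DMSO) for 60 min at room temperature; nonspecific binding with 10 μM almorexant. Filtration and scintillation counting; one-site IC50 converted to Ki using predetermined Kd, triplicates averaged over 2-20 runs.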

For a further assay, the target named is human orexin 1 receptor (Homo sapiens (Human), UniProt O43613). The assay can be described thus: Human orexin 1 receptor radioligand binding (competitive). Particulars: CHO cells stably expressing human orexin 1 receptor; 4 nM radioligand; averages of 2-20 runs; read-out: hOX1 Ki. Put shortly:
as §1

Sequence of human orexin 1 receptor (O43613 whole entry): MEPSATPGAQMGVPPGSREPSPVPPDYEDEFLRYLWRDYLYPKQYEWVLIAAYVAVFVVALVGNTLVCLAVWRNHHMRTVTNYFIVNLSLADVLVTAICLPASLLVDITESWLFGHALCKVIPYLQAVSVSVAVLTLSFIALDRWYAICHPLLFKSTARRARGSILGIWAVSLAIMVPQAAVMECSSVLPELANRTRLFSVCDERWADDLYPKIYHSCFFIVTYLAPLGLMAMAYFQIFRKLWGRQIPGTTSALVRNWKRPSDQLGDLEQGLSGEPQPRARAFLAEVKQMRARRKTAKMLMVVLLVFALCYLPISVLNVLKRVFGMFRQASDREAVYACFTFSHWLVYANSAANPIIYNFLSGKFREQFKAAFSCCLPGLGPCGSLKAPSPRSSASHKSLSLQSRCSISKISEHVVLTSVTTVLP
Sequence of human orexin 2 receptor (O43614 whole entry): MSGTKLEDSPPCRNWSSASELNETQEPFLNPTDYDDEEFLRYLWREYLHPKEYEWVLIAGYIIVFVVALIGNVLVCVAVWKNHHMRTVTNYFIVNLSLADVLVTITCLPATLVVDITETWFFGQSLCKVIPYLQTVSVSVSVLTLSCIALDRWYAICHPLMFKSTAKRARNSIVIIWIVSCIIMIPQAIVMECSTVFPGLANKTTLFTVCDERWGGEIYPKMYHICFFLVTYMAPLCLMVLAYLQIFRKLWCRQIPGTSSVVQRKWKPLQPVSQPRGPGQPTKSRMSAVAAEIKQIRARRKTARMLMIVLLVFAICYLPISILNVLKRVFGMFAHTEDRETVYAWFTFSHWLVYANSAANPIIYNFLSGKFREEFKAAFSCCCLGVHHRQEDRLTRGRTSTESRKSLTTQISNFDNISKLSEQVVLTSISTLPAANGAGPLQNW

Regarding `COc1ccc(C(=O)N2[C@H](C)[C@H]3C[C@@H](Oc4cnc(C(F)(F)F)cn4)[C@@H]2C3)c(-n2nccn2)c1` (relative stereo) [Example 57, (4-methoxy-2-(2H-1,2,3-triazol-2-yl)phenyl)((1S*,3R*,4R*,6R*)-3-methyl-6-((5-(trifluoromethyl)pyrazin-2-yl)oxy)-2-azabicyclo[2.2.1]heptan-2-yl)methanone], the Ki at rat orexin 1 receptor is 15 nM; at human orexin 2 receptor it was over 10000 nM; on human orexin 1 receptor, 10 nM.

As to `Cc1ccc(-n2nccn2)c(C(=O)N2[C@H](C)[C@H]3C[C@@H](Oc4cnc5cc(F)c(F)cc5n4)[C@@H]2C3)n1` (relative stereo) [Example 189, ((1S*,3R*,4R*,6R*)-6-((6,7-difluoroquinoxalin-2-yl)oxy)-3-methyl-2-azabicyclo[2.2.1]heptan-2-yl)(6-methyl-3-(2H-1,2,3-triazol-2-yl)pyridin-2-yl)methanone], the inhibitory constant (Ki) amounted to 41 nM on rat orexin 1 receptor, 109 nM on human orexin 2 receptor and 42 nM on human orexin 1 receptor.

On to `Cc1cnc(C(=O)N2[C@H](C)[C@H]3C[C@@H](Oc4ccc(C(F)(F)F)cn4)[C@@H]2C3)c(-c2ncccc2F)c1` (relative stereo) [Example 34, (3-fluoro-5′-methyl-[2,3′-bipyridin]-2′-yl)((1S*,3R*,4R*,6R*)-3-methyl-6-((5-(trifluoromethyl)pyridin-2-yl)oxy)-2-azabicyclo[2.2.1]heptan-2-yl)methanone], for which the values for the inhibition constant Ki at rat orexin 1 receptor, on human orexin 2 receptor and at human orexin 1 receptor were 11 nM, 6300 nM and 14 nM, respectively.

`Cc1ccc(Br)c(C(=O)N2C(C)C3CC(Nc4cnc(C(F)(F)F)cn4)C2C3)n1` (racemic) [Example 7, (R/S)-(3-bromo-6-methylpyridin-2-yl)(3-methyl-6-((5-(trifluoromethyl)pyrazin-2-yl)amino)-2-azabicyclo[2.2.1]heptan-2-yl)methanone]: the inhibitory constant (Ki) at rat orexin 1 receptor was 125 nM; at human orexin 2 receptor it was 1200 nM; at human orexin 1 receptor it was 144 nM.

Regarding `C[C@@H]1[C@H]2C[C@@H](Oc3ccc(C(F)(F)F)cn3)[C@H](C2)N1C(=O)c1ccccc1-c1ccc(F)nc1` [Example 171, [2-(6-fluoro-3-pyridyl)phenyl]-[(1R,2R,4S,5R)-2-methyl-5-[[5-(trifluoromethyl)-2-pyridyl]oxy]-3-azabicyclo[2.2.1]heptan-3-yl]methanone], the Ki on rat orexin 1 receptor amounted to 23 nM; on human orexin 2 receptor, 1600 nM; on human orexin 1 receptor, 17 nM.

As for `C[C@@H]1[C@H]2C[C@@H](Oc3cnc(C(F)(F)F)cn3)[C@H](C2)N1C(=O)c1ncccc1-n1nccn1` (relative stereo) [Example 47, (3-(2H-1,2,3-triazol-2-yl)pyridin-2-yl)((1S*,3R*,4R*,6R*)-3-methyl-6-((5-(trifluoromethyl)pyrazin-2-yl)oxy)-2-azabicyclo[2.2.1]heptan-2-yl)methanone], the Ki is 68 nM on rat orexin 1 receptor, over 10000 nM on human orexin 2 receptor and 151 nM at human orexin 1 receptor.

Turning to `Cc1ccc(-n2nccn2)c(C(=O)N2[C@H](C)[C@H]3C[C@@H](Oc4cnc5cc(F)ccc5n4)[C@@H]2C3)n1` (relative stereo) [Example 186, ((1S*,3R*,4R*,6R*)-6-((6-fluoroquinoxalin-2-yl)oxy)-3-methyl-2-azabicyclo[2.2.1]heptan-2-yl)(6-methyl-3-(2H-1,2,3-triazol-2-yl)pyridin-2-yl)methanone], the Ki was 18 nM on rat orexin 1 receptor, 125 nM at human orexin 2 receptor and 12 nM on human orexin 1 receptor.

Consider `C[C@@H]1[C@H]2C[C@@H](Oc3ccc(C(F)(F)F)cn3)[C@H](C2)N1C(=O)c1ccccc1-n1ncc(CCCF)n1` [Example 168, [2-[4-(3-fluoropropyl)triazol-2-yl]phenyl]-[(1R,2R,4S,5R)-2-methyl-5-[[5-(trifluoromethyl)-2-pyridyl]oxy]-3-azabicyclo[2.2.1]heptan-3-yl]methanone], for which the Ki at rat orexin 1 receptor came out at 14 nM; on human orexin 2 receptor it was 1380 nM; at human orexin 1 receptor it was 20 nM.

Consider `O=C(c1cccc(F)c1-c1ncccn1)N1[C@H](CF)[C@@H]2CC[C@H]1[C@H](Oc1ccc(C(F)(F)F)cn1)C2` [Example 79, (3-fluoro-2-(pyrimidin-2-yl)phenyl)((1S,3S,4R,6R)-3-(fluoromethyl)-6-((5-(trifluoromethyl)pyridin-2-yl)oxy)-2-azabicyclo[2.2.2]octan-2-yl)methanone], for which the results for the Ki on rat orexin 1 receptor, on human orexin 2 receptor and on human orexin 1 receptor were 49 nM, over 10000 nM and 46 nM, respectively.

With `[2H]C1([2H])[C@H]2C[C@@H]([C@@H]1Oc1ccc(C(F)(F)F)cn1)N(C(=O)c1cccc(F)c1-n1nccn1)[C@@H]2C` [Example 199, [(1R,3R,4S,6R)-2,2-dideuterio-6-methyl-3-[[5-(trifluoromethyl)-2-pyridyl]oxy]-5-azabicyclo[2.2.1]heptan-5-yl]-[3-fluoro-2-(triazol-2-yl)phenyl]methanone], the values for the inhibition constant (Ki) on rat orexin 1 receptor, at human orexin 2 receptor and on human orexin 1 receptor were 5 nM, 556 nM and 5 nM, respectively.

As to `Cc1cccc(C(=O)N2[C@H](C)[C@H]3C[C@@H](Oc4ccc(C(F)(F)F)nc4)[C@@H]2C3)c1-n1nccn1` (relative stereo) [Example 39, (3-methyl-2-(2H-1,2,3-triazol-2-yl)phenyl)((1S*,3R*,4R*,6R*)-3-methyl-6-((6-(trifluoromethyl)pyridin-3-yl)oxy)-2-azabicyclo[2.2.1]heptan-2-yl)methanone], the Ki at rat orexin 1 receptor was 90 nM; on human orexin 2 receptor it was 3600 nM; on human orexin 1 receptor it was 123 nM.

For the compound `C[C@@H]1[C@@H]2CC[C@@H]([C@@H](Oc3ccc(C(F)(F)F)cn3)C2)N1C(=O)c1cccc(F)c1-c1ncccn1` [Example 162, (3-fluoro-2-pyrimidin-2-yl-phenyl)-[(1R,2R,4S,5S)-2-methyl-5-[[5-(trifluoromethyl)-2-pyridyl]oxy]-3-azabicyclo[2.2.2]octan-3-yl]methanone], the values for the inhibitory constant (Ki) on rat orexin 1 receptor, on human orexin 2 receptor and on human orexin 1 receptor were 236 nM, over 10000 nM and 106 nM, respectively.

Consider `Cc1ccc(-n2nccn2)c(C(=O)N2[C@H](CO)[C@@H]3CC[C@H]2[C@H](Oc2ccc(C(F)(F)F)cn2)C3)n1` [Example 176, [(1R,2S,4S,5R)-2-(hydroxymethyl)-5-[[5-(trifluoromethyl)-2-pyridyl]oxy]-3-azabicyclo[2.2.2]octan-3-yl]-[6-methyl-3-(triazol-2-yl)-2-pyridyl]methanone], for which the Ki on rat orexin 1 receptor turned out to be 33 nM; at human orexin 2 receptor it was 8100 nM; on human orexin 1 receptor, 35 nM.

Take `CC1C2CC(Oc3ccc(C(F)(F)F)cn3)C(C2)N1C(=O)c1ncccc1-c1ncccn1` (racemic) [Example 14]: the Ki on rat orexin 1 receptor amounted to 11 nM; at human orexin 2 receptor it was 3700 nM; on human orexin 1 receptor, 13 nM.

`Cc1cnc(C(=O)N2C(CC(C)C)C3CC(Oc4ccc(C(F)(F)F)cn4)C2C3)c(-n2nccn2)c1` (racemic) [Example 208, (R/S)-[2-isobutyl-5-[[5-(trifluoromethyl)-2-pyridyl]oxy]-3-azabicyclo[2.2.1]heptan-3-yl]-[5-methyl-3-(triazol-2-yl)-2-pyridyl]methanone]: the Ki at rat orexin 1 receptor worked out at 177 nM; on human orexin 2 receptor it was 418 nM; at human orexin 1 receptor, 170 nM.

In the case of `Cc1ccc(-c2ncccn2)c(C(=O)N2[C@H](C)[C@@H]3CC[C@H]2[C@H](Oc2ccc(C(F)(F)F)cn2)C3)n1` [Example 158, (6-methyl-3-pyrimidin-2-yl-2-pyridyl)-[(1R,2R,4S,5R)-2-methyl-5-[[5-(trifluoromethyl)-2-pyridyl]oxy]-3-azabicyclo[2.2.2]octan-3-yl]methanone], the inhibition constant Ki turned out to be 35 nM on rat orexin 1 receptor, 2700 nM at human orexin 2 receptor and 138 nM at human orexin 1 receptor.

For the compound `CC(C)CC1C2CC(Oc3ccc(C(F)(F)F)cn3)C(C2)N1C(=O)c1ccccc1-c1ncccn1` (racemic) [Example 209, (R/S)-[2-isobutyl-5-[[5-(trifluoromethyl)-2-pyridyl]oxy]-3-azabicyclo[2.2.1]heptan-3-yl]-(2-pyrimidin-2-ylphenyl)methanone], the figures for the inhibitory constant (Ki) at rat orexin 1 receptor, at human orexin 2 receptor and at human orexin 1 receptor were 44 nM, 3000 nM and 24 nM, respectively.

Take `C[C@@H]1[C@H]2C[C@@H](Oc3ccc(C(F)(F)F)nc3)[C@H](C2)N1C(=O)c1cccc(F)c1-n1nccn1` (relative stereo) [Example 38, (3-fluoro-2-(2H-1,2,3-triazol-2-yl)phenyl)((1S*,3R*,4R*,6R*)-3-methyl-6-((6-(trifluoromethyl)pyridin-3-yl)oxy)-2-azabicyclo[2.2.1]heptan-2-yl)methanone]: the inhibitory constant (Ki) on rat orexin 1 receptor is 216 nM; at human orexin 2 receptor, 4900 nM; at human orexin 1 receptor, 283 nM.

Take `Cc1cnc(C(=O)N2[C@H](C)[C@@H]3CC[C@H]2[C@H](Oc2ccc(C(F)(F)F)cn2)C3)c(-c2ncccn2)c1` [Example 161, (5-methyl-3-pyrimidin-2-yl-2-pyridyl)-[(1R,2R,4S,5R)-2-methyl-5-[[5-(trifluoromethyl)-2-pyridyl]oxy]-3-azabicyclo[2.2.2]octan-3-yl]methanone]: the Ki amounted to 4 nM at rat orexin 1 receptor, 5000 nM at human orexin 2 receptor and 8 nM at human orexin 1 receptor.

Consider `CC(C)CC1C2CC(Oc3ccc(C(F)(F)F)cn3)C(C2)N1C(=O)c1ccccc1-c1ncc(F)cn1` (racemic) [Example 212, (R/S)-[2-(5-fluoropyrimidin-2-yl)phenyl]-[2-isobutyl-5-[[5-(trifluoromethyl)-2-pyridyl]oxy]-3-azabicyclo[2.2.1]heptan-3-yl]methanone], for which the Ki on rat orexin 1 receptor came to 100 nM; on human orexin 2 receptor, 3800 nM; on human orexin 1 receptor it was 55 nM.
